Data set [1] relates to HIV-13B in MT4 cells. The data set is described as follows: Anti-HIV activity (inhibition of cytopathic effect of HIV) in MT4 cells. The class given is cell-based. Particulars: Human immunodeficiency virus 1, concentration giving 50% inhibition of cytopathic effect of HIV. From the text:
(§1) The IC50 is the concentration of compound that gives 50% inhibition of the cytopathic effect of HIV. The LC50 is the concentration of compound at which 50% of the cells remain viable.

A short description of data set [2]: Cytotoxicity in MT4 cells. The class given is cell-based. The conditions noted are these: human, concentration at which 50% of the cells remain viable, read-out: LC50 (the source's name).
Excerpt: as §1

The target in data set [3] is HIV-1 protease (Human immunodeficiency virus type 1 group M subtype B, UniProt P04585). The data set is described as follows: Fluorogenic assay for screening inhibitors of HIV protease.
Description: The inhibitory potency of the compounds of the invention can be determined by the following method.
A compound of the invention is dissolved in DMSO and a small aliquot further diluted with DMSO to 100 times the final concentration desired for testing. The reaction is carried out in a 6×50 mm tube in a total volume of 300 microliters. The final concentrations of the components in the reaction buffer are: 125 mM sodium acetate, 1M sodium chloride, 5 mM dithiothreitol, 0.5 mg/ml bovine serum albumin, 1.3 μM fluorogenic substrate, 2% (v/v) dimethylsulfoxide, pH 4.5. After addition of inhibitor, the reaction mixture is placed in the fluorometer cell holder and incubated at 30° C. for several minutes. The reaction is initiated by the addition of a small aliquot of cold HIV protease. The fluorescence intensity (excitation 340 nm, emmision 490 nM) is recorded as a function of time. The reaction rate is determined for the first six to eight minutes. The observed rate is directly proportional to the moles of substrate cleaved per unit time. The percent inhibition is 100×(1-(rate in presence of inhibitor)/(rate in absence of inhibitor)).
Where [4] appears, read: pH 4.5, read-out: Percent Inhibition.

Our source for the IC50, CC50 and inhibition values is patent US5461067A, “Retroviral protease inhibiting compounds” (priority 1994, dated 1995).

On to `CC(C)(C)OC(=O)NN(Cc1ccccc1)C[C@H](O)[C@H](Cc1ccccc1)NC(=O)OCc1ccccc1` [Example 1F, 2-(t-Butyloxycarbonyl)amino-4S-hydroxy-5S-(benzyloxycarbonyl)amino-1,6-diphenyl-2-azahexane], for which the IC50 in data set [1] is 36 µM; in data set [3], 0.0051 µM. Further, the CC50 in data set [2] was more than 100 µM. For the same compound, the inhibition at 0.0051 µM in data set [3] (setting [4]) is 50%.
`CC(C)(C)OC(=O)NN(Cc1ccccc1)C[C@H](O)[C@H](Cc1ccccc1)NC(=O)OCc1cncs1` [Example 7F, 5S-(((5-Thiazolyl)methoxy)carbonyl)amino-2-(t-butyloxycarbonyl)amino-4S-hydroxy-1,6-diphenyl-2-azahexane]: the values for the IC50 in data set [1] and in data set [3] were 6.5 to 18.2 µM and 0.0044 µM, respectively. In addition, the CC50 in data set [2] worked out at 44 µM. The inhibition at 0.0044 µM in data set [3] (setting [4]) turned out to be 50%.
Compound `CC(C)c1nc(CN(C)C(=O)N[C@H](C(=O)NN(Cc2ccccc2)C[C@H](O)[C@H](Cc2ccccc2)NC(=O)OCc2ccno2)C(C)C)co1` [Example 13D, 5S-N-((5-Isoxazolyl)methoxy)carbonylamino-2-N-((N-methyl-N-((2-isopropyl-4-oxazolyl)methyl)amino)carbonyl)-L-valinylamino-4S, hydroxy-1,6-diphenyl-2-azahexane] returned an IC50 in data set [1] of 0.102 to 0.15 µM. Besides, the CC50 in data set [2] turned out to be 58 µM. In addition, the inhibition at 0.0005 µM in data set [3] (setting [4]) amounted to 71%.
For `CC(C)[C@H](NC(=O)OCc1ccccn1)C(=O)N[C@@H](Cc1ccccc1)[C@@H](O)CN(Cc1ccccc1)NC(=O)OCc1cccnc1` [Example 5B, 5S-N-((2-Pyridinyl)methoxycarbonyl)valinylamino-2-((N-3-pyridinyl)methoxycarbonyl)amino-4S-hydroxy-1,6-diphenyl-2-azahexane] the same measures were 0.15 to 0.26 µM, more than 100 µM and 60%.
Consider `CCc1cccc(CN(C)C(=O)N[C@H](C(=O)NN(Cc2ccccc2)C[C@H](O)[C@H](Cc2ccccc2)NC(=O)OCc2ccccc2)C(C)C)n1` [Example 10, 5S-(Benzyloxycarbonyl)amino-2-N-((N-methyl-N-((6-ethyl-2-pyridinyl)methyl)amino)carbonyl)-L-valinylamino-4S-hydroxy-1,6-diphenyl-2-azahexane], for which the IC50 in data set [1] is 0.83 to 1.1 µM; in data set [3], 0.0005 µM. The CC50 in data set [2] stood at 19 µM. In data set [3] (setting [4]), the inhibition at 0.0005 µM stood at 50%.

As usually defined, the IC50 is the concentration at which inhibition is half-maximal. A lower IC50 goes with higher potency. Broadly, the inhibition is the relative decrease from the control value, in per cent.
